Entries after “also recorded” stand apart in the source; their conditions may differ. Read-outs that look alike come from different tables or passages of the source.
What was measured:
CYP3A4 = CYP3A4 (Homo sapiens, UniProt P08684); assay: biochemical
CYP2C19 = CYP2C19 (Homo sapiens, UniProt P33261); assay: Cytochrome P450 inhibition with fluorescent probe substrate
[1] = Microsomal stability assay; conditions: microsomes
MDR1 (P-gp) = MDR1 (P-gp) (Homo sapiens, UniProt P08183); assay: MDR1-MDCK efflux assay (net flux ratio); conditions: 37° C., three hours
Chain of MDR1 (P-gp) (P08183 whole entry): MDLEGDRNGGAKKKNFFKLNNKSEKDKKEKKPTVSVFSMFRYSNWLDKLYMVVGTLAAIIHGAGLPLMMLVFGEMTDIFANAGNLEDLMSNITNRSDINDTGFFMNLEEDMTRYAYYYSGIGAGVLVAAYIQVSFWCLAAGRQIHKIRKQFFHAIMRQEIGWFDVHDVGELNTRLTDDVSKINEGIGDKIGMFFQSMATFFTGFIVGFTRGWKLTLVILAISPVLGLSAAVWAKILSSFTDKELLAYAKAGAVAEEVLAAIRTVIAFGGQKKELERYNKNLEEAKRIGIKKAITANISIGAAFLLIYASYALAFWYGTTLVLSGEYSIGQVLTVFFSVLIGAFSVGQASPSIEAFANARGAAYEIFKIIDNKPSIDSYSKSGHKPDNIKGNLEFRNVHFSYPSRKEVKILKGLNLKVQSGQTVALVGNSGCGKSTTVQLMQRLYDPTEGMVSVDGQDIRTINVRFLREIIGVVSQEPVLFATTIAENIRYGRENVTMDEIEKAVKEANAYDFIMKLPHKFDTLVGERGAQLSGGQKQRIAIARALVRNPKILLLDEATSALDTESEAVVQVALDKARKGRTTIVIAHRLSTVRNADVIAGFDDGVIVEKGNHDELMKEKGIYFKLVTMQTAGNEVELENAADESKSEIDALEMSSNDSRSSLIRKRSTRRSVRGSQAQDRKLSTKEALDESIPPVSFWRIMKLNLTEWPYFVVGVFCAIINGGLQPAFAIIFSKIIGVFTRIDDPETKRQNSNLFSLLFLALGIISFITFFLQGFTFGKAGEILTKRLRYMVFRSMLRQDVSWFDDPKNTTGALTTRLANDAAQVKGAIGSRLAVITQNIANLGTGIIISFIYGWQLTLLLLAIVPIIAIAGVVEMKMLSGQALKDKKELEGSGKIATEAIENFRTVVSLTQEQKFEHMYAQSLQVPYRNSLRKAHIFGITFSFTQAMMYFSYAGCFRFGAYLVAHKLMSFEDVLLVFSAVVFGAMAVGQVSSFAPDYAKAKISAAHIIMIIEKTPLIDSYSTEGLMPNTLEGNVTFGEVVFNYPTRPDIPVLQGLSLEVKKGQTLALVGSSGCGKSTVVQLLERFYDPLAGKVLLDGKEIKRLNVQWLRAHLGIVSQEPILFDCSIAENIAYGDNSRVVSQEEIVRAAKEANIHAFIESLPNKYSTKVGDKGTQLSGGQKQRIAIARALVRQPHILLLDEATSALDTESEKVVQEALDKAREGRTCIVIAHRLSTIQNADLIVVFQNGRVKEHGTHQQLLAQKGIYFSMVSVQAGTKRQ

[2] = guinea pig, in vivo; for percentage of the administered dose in the brain / LogBB / brain concentration / plasma concentration: male; for LogBB / brain concentration / plasma concentration: iv
hERG channel = hERG channel (Homo sapiens, UniProt Q12809); assay: hERG channel patch clamp assay
Chain of hERG channel (Q12809 whole entry): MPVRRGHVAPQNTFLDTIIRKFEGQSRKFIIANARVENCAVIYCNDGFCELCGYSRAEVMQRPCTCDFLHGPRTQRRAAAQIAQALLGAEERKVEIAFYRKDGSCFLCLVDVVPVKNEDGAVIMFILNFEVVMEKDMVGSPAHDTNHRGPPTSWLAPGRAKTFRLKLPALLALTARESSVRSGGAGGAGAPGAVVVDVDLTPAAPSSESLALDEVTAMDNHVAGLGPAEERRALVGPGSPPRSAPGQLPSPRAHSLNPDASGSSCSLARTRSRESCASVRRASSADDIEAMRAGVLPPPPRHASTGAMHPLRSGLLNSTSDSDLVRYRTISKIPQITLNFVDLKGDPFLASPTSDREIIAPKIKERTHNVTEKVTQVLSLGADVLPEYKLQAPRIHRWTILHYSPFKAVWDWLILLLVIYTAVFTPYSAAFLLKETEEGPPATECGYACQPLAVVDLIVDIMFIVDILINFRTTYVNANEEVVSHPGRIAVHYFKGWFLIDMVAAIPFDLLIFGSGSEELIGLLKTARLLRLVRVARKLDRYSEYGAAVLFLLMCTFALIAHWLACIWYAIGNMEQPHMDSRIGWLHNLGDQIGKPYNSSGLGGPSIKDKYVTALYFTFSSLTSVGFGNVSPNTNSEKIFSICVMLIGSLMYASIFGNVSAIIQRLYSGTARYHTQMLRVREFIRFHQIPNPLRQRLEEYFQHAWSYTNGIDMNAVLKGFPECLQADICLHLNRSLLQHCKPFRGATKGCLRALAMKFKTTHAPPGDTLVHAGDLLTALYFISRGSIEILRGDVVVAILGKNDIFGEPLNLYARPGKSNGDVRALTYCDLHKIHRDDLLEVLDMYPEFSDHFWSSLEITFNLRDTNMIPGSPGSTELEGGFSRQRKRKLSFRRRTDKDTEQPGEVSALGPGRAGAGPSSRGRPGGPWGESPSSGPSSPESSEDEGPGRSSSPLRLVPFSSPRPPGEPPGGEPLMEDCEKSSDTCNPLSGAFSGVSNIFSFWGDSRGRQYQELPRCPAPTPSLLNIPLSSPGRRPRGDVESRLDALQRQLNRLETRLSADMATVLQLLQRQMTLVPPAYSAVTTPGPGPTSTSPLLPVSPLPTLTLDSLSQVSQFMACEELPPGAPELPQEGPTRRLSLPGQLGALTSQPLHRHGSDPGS

in vivo [3] = conditions: male, guinea pig
[4] = male, guinea pig, in vivo
[5] = Human plasma stability assay
[6] = Parallel Artificial Membrane Permeability Assay (PAMPA); conditions: about 100 μM, five hours, 25° C.
in vivo [7] = conditions: male, guinea pig, iv
human AChE = human AChE (Homo sapiens, UniProt P22303); type: biochemical
Chain of human AChE (P22303-2 with tags, fused parts or gaps limits assumed): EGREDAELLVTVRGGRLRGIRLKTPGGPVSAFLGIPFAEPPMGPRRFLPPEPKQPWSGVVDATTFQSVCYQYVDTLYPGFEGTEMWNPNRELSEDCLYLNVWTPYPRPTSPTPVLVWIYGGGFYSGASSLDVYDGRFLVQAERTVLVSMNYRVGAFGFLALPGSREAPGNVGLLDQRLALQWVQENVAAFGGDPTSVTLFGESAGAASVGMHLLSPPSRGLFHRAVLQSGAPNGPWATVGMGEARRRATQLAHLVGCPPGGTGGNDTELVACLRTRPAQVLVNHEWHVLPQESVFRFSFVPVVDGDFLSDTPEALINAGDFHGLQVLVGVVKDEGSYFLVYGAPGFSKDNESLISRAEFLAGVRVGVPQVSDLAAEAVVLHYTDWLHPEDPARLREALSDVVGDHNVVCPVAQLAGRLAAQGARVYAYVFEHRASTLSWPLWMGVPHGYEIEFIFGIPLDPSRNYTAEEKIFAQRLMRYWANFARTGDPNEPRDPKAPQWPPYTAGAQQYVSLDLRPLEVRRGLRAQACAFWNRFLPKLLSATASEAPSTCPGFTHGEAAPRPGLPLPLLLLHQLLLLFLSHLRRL

Chain of CYP2C19 (P33261 whole entry): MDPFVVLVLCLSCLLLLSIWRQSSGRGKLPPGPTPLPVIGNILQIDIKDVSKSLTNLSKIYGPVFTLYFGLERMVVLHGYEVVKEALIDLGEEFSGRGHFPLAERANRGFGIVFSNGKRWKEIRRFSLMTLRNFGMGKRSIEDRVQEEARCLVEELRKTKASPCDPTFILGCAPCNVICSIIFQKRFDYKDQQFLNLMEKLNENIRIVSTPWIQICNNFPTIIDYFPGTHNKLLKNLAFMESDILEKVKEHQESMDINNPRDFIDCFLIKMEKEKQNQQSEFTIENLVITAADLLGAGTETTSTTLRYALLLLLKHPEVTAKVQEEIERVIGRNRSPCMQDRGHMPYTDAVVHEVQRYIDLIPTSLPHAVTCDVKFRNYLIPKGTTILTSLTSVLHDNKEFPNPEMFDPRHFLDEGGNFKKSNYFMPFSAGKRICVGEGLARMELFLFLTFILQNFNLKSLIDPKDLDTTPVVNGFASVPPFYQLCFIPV
Chain of CYP3A4 (P08684 whole entry): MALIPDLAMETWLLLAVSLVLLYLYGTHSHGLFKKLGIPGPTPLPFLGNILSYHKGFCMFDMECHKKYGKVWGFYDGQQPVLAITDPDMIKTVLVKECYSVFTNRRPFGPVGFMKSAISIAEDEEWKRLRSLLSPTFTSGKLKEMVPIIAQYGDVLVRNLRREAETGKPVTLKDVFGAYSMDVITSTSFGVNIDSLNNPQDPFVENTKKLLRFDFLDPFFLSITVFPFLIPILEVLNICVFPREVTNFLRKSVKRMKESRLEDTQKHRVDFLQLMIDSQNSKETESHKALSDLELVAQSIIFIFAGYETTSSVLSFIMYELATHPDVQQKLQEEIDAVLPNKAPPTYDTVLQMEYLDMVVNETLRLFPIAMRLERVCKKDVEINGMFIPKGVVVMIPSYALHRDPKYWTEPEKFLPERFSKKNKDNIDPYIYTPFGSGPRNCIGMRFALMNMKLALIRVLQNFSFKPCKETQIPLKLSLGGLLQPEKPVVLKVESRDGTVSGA

C[C@@H](CN1CCCc2ccccc2C1)NC(=O)/C=N/O [LLNL-02]
IC50 (CYP3A4): > 10 µM
IC50 (CYP2C19): > 10 µM
half-life [1]: > 60 min
microsomal CLint [1]: < 23 µL/min/mg
MDR1 efflux substrate status from net flux ratio (MDR1 (P-gp)): may be a moderate efflux substrate; also recorded: moderate efflux substate
time of Cmax in the brain [2]: 5 min
percentage of the administered dose in the brain [2]: 0.3-0.7%
percentage of the administered dose in the brain ([2]; 1 mg/kg): 0.3%
percentage of the administered dose in the brain ([2]; 5 mg/kg): 0.3%
percentage of the administered dose in the brain ([2]; 20 mg/kg): 0.7%
LogBB ([2]; 1 mg/kg): −0.879
brain concentration ([2]; 1 mg/kg): 0.191 µg/g
plasma concentration ([2]; 1 mg/kg): 1.443 µg/g
LogBB ([2]; 5 mg/kg): −0.649
brain concentration ([2]; 5 mg/kg): 1.421 µg/g
plasma concentration ([2]; 5 mg/kg): 6.352 µg/g
LogBB ([2]; 10 mg/kg): −0.311
brain concentration ([2]; 10 mg/kg): 5.269 µg/g
plasma concentration ([2]; 10 mg/kg): 10.790 µg/g
LogBB ([2]; 20 mg/kg): −0.276
brain concentration ([2]; 20 mg/kg): 10.048 µg/g
plasma concentration ([2]; 20 mg/kg): 19.009 µg/g
concentration not toxic to the hERG channel (hERG channel): > 10 µM
Cmax (in vivo [3]): 1420 to 10000 ng/g
increase in mean AUC0-t [4]: 2.5 fold
AUC0-t ([4]; iv, 10 mg/kg): 28480 ng·h/mL
T½ elim. ([4]; iv, 10 mg/kg): 606.6 min
Vd (area) ([4]; iv, 10 mg/kg): 6.32268 L/kg
human plasma stability (percent remaining after 1 hour) ([5]; human plasma, 1 hour at 37° C.): over 90%
degradation in human plasma ([5]; one hour): < 10%
PAMPA permeability [6]: high permeability through the BBB; also recorded: high permeability comparable to that of the highly permeable positive control compound, diazepam; also recorded: elevated permeability relative to other selected compounds; also recorded: superior permeation relative to LLNL-03
half-life (in vivo [7]; 1 mg/kg, T½ dist.): 23.4 min
half-life (in vivo [7]; 5 mg/kg, T½ dist.): 24 min
AUC(0-inf) (in vivo [7]; 10 mg/kg): 73400 ng·h/mL
AUC0-t (in vivo [7]; 10 mg/kg, AUC0-t): 28400 ng·h/mL
half-life (in vivo [7]; 10 mg/kg, T½ dist.): 15 min
half-life (in vivo [7]; 10 mg/kg, T½ elim.): 606 min
Vd (in vivo [7]; 10 mg/kg, Vd (area)): 6.32 L/kg
half-life (in vivo [7]; 20 mg/kg, T½ dist.): 23.4 min
Vd (in vivo [7]; 20 mg/kg, apparent volume of distribution (Vd)): 3.75 to 6.32 L/kg
half-life (in vivo [7]; 20 mg/kg, mean apparent distribution half-life (t1/2α)): 15 to 24 min
half-life (in vivo [7]; 20 mg/kg, terminal half-life (t1/2 β)): 606 to 1130 min
clearance (in vivo [7]; 20 mg/kg, total clearance from plasma (CL)): 2.27 to 5.19 mL/min/kg
fraction of AChE reactivated at 30 minutes, methylated versus des-methyl analog (human AChE): significantly lower reactivation relative to the des-methyl counterpart
reactivation of adducted AChE relative to the 2-PAM standard of care (human AChE): approximately 40%

From patent US11186548B2 (priority 2017, dated 2021)
